In ChEMBL document CHEMBL4507319 (2021):

What was measured:
[1] = tested on: MDA-MB-231; experiment: MDA-MB- 231 cell line Proliferation assay; type: functional, Homo sapiens; settings: time 3 day
[2] = biological target: T1, Ephrin type-B receptor 4 (Homo sapiens) (UniProt P54760); experiment: EphB4(h) Eurofins kinase panel; settings: Compound concentration 1.0 uM
T1 sequence (whole entry): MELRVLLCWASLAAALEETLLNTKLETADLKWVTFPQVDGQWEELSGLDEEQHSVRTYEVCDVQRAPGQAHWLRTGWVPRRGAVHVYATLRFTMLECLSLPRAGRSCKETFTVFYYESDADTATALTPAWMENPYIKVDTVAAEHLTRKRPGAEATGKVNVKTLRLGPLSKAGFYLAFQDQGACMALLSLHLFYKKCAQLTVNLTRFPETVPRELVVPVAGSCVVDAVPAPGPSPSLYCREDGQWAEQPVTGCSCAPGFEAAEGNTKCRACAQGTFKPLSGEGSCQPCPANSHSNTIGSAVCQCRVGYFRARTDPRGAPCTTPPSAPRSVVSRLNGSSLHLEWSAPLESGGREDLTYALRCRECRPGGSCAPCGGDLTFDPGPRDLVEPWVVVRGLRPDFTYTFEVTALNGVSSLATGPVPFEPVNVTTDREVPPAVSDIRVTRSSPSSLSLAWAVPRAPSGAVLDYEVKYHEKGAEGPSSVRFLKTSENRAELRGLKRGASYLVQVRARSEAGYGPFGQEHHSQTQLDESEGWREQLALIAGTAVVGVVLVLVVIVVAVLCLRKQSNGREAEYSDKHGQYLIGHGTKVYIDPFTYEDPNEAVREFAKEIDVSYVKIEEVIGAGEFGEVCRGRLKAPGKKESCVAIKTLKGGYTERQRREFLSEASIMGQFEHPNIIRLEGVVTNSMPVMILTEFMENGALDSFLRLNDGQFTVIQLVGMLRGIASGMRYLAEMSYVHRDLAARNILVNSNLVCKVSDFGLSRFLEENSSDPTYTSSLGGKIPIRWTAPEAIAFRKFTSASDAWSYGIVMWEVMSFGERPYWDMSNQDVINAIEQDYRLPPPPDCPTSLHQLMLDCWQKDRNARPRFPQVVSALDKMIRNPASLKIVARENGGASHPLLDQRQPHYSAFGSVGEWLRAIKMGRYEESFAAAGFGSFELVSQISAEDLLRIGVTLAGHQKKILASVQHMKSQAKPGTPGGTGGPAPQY

[3] = biological target: T2, Testis-specific serine/threonine-protein kinase 1 (Homo sapiens) (UniProt Q9BXA7); experiment: TSSK1(h) Eurofins kinase panel; settings: Compound concentration 1.0 uM
T2 sequence (whole entry): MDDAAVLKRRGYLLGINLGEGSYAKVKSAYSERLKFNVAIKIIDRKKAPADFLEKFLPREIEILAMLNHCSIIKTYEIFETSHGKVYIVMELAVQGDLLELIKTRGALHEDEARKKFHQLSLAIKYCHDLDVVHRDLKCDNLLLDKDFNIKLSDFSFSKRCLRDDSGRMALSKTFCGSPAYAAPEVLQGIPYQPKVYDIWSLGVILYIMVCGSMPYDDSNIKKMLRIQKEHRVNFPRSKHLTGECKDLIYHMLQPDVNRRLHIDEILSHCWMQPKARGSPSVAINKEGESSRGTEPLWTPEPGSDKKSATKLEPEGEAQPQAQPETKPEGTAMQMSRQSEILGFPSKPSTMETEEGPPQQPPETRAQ

[4] = biological target: Platelet-derived growth factor receptor beta (Homo sapiens) (UniProt P09619); experiment: PDGFRbeta(h) Eurofins kinase panel; settings: Compound concentration 1.0 uM
Chain of Platelet-derived growth factor receptor beta (Homo sapiens) (P09619 whole entry): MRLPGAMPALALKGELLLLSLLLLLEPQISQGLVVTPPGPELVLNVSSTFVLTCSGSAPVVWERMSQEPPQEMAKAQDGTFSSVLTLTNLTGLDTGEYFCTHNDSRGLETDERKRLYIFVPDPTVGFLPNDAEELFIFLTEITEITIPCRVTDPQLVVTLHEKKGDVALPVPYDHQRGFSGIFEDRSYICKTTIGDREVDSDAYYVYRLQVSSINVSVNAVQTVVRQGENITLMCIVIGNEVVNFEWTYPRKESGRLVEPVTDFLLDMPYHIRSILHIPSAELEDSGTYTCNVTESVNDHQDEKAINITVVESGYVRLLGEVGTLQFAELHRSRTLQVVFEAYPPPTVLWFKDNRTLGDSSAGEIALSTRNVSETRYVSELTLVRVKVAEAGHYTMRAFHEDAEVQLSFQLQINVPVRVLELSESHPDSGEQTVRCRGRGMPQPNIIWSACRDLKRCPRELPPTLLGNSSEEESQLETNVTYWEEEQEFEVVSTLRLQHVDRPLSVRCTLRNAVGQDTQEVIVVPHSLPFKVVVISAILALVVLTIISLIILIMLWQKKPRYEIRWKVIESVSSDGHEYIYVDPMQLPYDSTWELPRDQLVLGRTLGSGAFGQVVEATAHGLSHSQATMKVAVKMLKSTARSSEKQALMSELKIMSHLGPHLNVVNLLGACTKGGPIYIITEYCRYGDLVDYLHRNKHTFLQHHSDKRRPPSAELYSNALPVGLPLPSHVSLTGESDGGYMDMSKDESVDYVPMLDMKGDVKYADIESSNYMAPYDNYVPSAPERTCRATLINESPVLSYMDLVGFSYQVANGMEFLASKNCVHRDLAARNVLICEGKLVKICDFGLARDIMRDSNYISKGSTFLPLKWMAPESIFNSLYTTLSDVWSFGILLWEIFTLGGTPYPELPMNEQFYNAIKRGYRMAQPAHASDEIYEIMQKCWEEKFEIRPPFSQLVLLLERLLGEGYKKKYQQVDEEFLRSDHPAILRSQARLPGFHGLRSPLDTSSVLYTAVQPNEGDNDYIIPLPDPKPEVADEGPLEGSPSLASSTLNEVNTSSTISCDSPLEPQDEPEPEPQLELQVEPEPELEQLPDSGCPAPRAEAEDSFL

[5] = biological target: Fibroblast growth factor receptor 1 (Homo sapiens) (UniProt P11362); experiment: FGFR1(h) Eurofins kinase panel; settings: Compound concentration 1.0 uM
Chain of Fibroblast growth factor receptor 1 (Homo sapiens) (P11362 22-822 limits assumed): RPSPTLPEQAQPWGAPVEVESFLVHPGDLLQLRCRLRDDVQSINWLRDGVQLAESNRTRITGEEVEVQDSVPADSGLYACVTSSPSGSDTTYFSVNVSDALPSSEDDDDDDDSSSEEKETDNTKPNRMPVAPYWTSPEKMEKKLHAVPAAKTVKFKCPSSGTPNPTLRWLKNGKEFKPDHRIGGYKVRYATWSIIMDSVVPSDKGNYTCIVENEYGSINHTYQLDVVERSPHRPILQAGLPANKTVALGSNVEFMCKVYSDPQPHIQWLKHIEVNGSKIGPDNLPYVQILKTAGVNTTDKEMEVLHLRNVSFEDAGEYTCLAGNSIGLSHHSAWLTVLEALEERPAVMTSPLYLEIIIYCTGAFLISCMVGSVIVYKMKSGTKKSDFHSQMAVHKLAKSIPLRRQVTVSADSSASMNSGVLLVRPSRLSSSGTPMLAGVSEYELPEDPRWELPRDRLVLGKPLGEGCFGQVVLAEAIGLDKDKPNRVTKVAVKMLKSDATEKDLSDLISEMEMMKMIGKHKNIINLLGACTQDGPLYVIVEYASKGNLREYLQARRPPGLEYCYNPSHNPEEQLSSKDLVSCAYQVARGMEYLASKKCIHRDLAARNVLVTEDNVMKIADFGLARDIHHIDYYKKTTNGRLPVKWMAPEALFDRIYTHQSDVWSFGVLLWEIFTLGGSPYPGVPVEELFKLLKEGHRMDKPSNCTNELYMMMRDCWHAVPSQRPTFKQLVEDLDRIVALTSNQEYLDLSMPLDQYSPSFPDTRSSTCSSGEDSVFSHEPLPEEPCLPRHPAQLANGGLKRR

[6] = biological target: T3, Serine/threonine-protein kinase Sgk2 (Homo sapiens) (UniProt Q9HBY8); experiment: SGK2(h) Eurofins kinase panel; settings: Compound concentration 1.0 uM
T3 sequence (whole entry): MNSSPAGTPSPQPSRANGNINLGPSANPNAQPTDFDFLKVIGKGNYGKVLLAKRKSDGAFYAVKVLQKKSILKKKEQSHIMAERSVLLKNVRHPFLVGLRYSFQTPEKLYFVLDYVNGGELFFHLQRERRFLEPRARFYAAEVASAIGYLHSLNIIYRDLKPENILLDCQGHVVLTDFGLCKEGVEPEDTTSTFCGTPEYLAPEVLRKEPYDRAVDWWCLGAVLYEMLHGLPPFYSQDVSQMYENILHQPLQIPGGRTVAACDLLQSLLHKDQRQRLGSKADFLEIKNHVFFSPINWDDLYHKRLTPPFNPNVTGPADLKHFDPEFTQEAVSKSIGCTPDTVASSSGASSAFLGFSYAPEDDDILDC

[7] = biological target: T4, Tyrosine-protein kinase receptor TYRO3 (Homo sapiens) (UniProt Q06418); experiment: Rse(h) Eurofins kinase panel; settings: Compound concentration 1.0 uM
T4 sequence (whole entry): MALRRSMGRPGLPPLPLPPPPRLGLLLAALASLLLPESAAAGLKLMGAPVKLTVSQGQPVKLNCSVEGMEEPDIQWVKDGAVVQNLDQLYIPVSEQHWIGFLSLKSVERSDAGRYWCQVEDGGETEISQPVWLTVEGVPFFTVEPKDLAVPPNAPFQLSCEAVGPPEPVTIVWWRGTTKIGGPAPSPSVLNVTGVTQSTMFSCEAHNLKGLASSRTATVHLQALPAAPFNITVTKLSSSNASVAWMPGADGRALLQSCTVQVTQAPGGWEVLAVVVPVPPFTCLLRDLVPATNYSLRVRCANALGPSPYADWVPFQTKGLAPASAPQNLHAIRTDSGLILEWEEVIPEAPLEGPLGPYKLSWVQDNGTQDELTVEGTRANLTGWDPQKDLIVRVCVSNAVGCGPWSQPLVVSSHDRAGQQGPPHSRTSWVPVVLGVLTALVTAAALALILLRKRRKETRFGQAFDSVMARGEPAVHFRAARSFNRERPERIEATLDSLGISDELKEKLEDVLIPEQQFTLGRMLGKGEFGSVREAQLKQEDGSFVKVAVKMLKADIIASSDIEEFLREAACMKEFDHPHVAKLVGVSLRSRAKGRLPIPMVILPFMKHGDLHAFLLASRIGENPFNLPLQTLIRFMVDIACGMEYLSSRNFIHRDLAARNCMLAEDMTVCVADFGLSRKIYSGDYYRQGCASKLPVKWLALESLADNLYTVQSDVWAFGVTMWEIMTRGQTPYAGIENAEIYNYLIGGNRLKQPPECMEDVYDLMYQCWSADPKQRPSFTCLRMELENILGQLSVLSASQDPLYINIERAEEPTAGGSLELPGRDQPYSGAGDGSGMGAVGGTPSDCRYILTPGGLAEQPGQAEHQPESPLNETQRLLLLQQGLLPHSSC

With `CCc1ccccc1C(=O)Nc1n[nH]c2c(C)c(F)c(C3C(C#N)=C(C)N(C)C(C)=C3C#N)cc12` [BAY-3827] the “Cell Proliferation IC50” value [1] was greater than 30 µM, the % residual kinase activity [2] was 77% and the % residual kinase activity [3] was 84%. The % residual kinase activity [4] was 108%, the % residual kinase activity [5] was 61% and the % residual kinase activity [6] was 70%. For the same compound, the % residual kinase activity [7] was 105%.
